Reference: US20140056951A1, “METHODS AND COMPOSITIONS FOR TREATING BIOFILMS” (PRESIDENT AND FELLOWS OF HARVARD COLLEGE, priority 2011, published 2014)
Like-named read-outs stand apart in the source and are kept apart here.

Experiments:
[1] = test system: B. subtilis strain NCBI3610; test: Biofilm (pellicle) inhibition assay, B. subtilis in liquid biofilm-inducing medium; type: cell-based, Bacillus subtilis; details: for minimal effective concentration: Bacillus subtilis; for inhibition of pellicle formation at 50 μM: cells diluted 1:1000 in biofilm media, final concentration 50 μM
Procedure: Bacillus subtilis strains PY79, 3610 and their derivatives were grown in Luria-Bertani (LB) medium at 37° C. or MSgg medium (1) at 23° C. Solid media contained 1.5% Bacto agar. When appropriate, antibiotics were added at the following concentrations for growth of B. subtilis: 10 μg per ml of tetracycline, and 5 μg per ml of erythromycin, 500 μg per ml of spectinomycin.
B. subtilis strain NCBI3610 was grown at 22° C. in 12-well plates in liquid biofilm-inducing medium for 3 or 8 days. Conditioned medium (500 ml) from an 8-day-old culture was concentrated on the C-18 column and eluted step-wise with methanol. […]
Pellicle formation of strain NCBI 3610 was tested in the presence of the indicated concentrations of norspermidine (FIG. 1D) or spermidine (FIG. 1E).
To identify features of norspermidine important for its biofilm disassembly activity, we tested a library of polyamines in our biofilm inhibition assay (FIGS. 9A, 9B, 10 and Table 2).
The effect of polyamines on pellicle formation by B. subtilis was examined. B. subtilis wild-type cells were grown to a mid-logarithmic phase and diluted 1:1000 in biofilm media applied with each polyamine to the final concentration of 50 μM.
The effect of cyclic polyamines on biofilm formation by B. subtilis was examined. B. subtilis wild-type cells were grown to a mid-logarithmic phase and diluted 1:1000 in biofilm media (18A) or in a medium applied with cyclic compound 1,5,9-Triazacyclododecane to the final concentration of 50 μM (18B).

[2] = test system: B. subtilis wild-type cells; test: Biofilm formation on solid biofilm medium, B. subtilis; type: cell-based, Bacillus subtilis; details: 1 μl of cells mixed with 1 μl (1 mM) polyamine
Procedure: B. subtilis wild-type cells were grown to a mid-logarithmic phase and 1 μl of cells was mixed with 1 μl (1 mM) of each polyamine. The mixture was plated on solid biofilm medium.
B. subtilis wild-type cells were grown to a mid-logarithmic phase and 1 μl of cells was either mixed with PBS (18C) or mixed with 1 μl (1 mM) of each polyamine (18D). The mixture was plated on solid biofilm medium. “3*” refers to 1,5,9-Triazacyclododecane.

[3] = test system: B. subtilis exopolysaccharide mutant (ΔepsH; DS76) and TasA mutant (ΔtasA; FC55); test: Pellicle formation by matrix mutants in presence of norspermidine; type: cell-based, Bacillus subtilis; details: 25 μM norspermidine, 3-day-old cultures
Excerpt: It was observed that the residual pellicle (wispy fragments of floating material with some structure) produced in the presence of norspermidine resembled pellicles seen for a mutant blocked in exopolysaccharide production but not those seen (thin, featureless pellicles) for a mutant blocked in amyloid-fiber production. […] In other words, the effect of norspermidine was synergistic with that of a mutation blocking fiber formation but not with a mutant blocked in exopolysaccharide production (FIG. 4B).

[4] = test system: exopolysaccharide and TasA of B. subtilis NCBI 3610; test: Fluorescence microscopy of matrix components (concanavalin A-Texas Red, TasA-mCherry), B. subtilis; type: cell-based, Bacillus subtilis
Excerpt: The cells were washed in PBS and stained for exopolysaccharide with a conjugate of concanavalin A with Texas-Red.
[…] Cells were washed in PBS, and visualized by fluorescence microscopy.
To investigate further, exopolysaccharide was visualized by fluorescence microscopy using a conjugate of the carbohydrate-binding protein concanavalin A with Texas Red (FIG. 5) (McSwain et al., 2005). As evidence of specificity, the conjugate decorated wild-type cells but not cells from a mutant (Aeps) blocked in exopolysaccharide production (FIG. 6A). Indeed, at an exposure at which concanavalin A staining with the wild type strain gave an extremely bright fluorescent signal, little or no signal could be detected for the Aeps mutant, except at long exposures and enhanced brightness (FIG. 6A). Next, we investigated the effects of norspermidine and spermidine. […] Therefore, the difference in the staining was evidently due to differential levels of cell-associated exopolysaccharide. […] Thus, while not being bound to any theory, it is believed that norspermidine disrupts the matrix and by targeting exopolysaccharide.

[5] = test system: B. subtilis NCBI 3610 / strain FC5 (PepsA-lacZ); test: Growth and matrix operon expression in shaking MSgg medium; type: cell-based, Bacillus subtilis; details: 100 μM, MSgg medium with shaking
Procedure: Strain FC5 (carrying PepsA-lacZ) was grown in MSgg medium containing norspermidine (100 μM) with shaking or in untreated medium as control (NT).
NCBI 3610 was grown in MSgg medium applied with norspermidine (100 μM) with shaking or in untreated medium served as a control (NT). […] Therefore, whether norspermidine interacts directly with the exopolysaccharide was investigated. To attempt to detect such an interaction, dynamic light scattering was used. Dynamic scattering is a standard procedure for measuring the average radius of polymers in which a laser beam is transmitted through a sample containing polymers in solution (Berne, 1976; Orgad et al., 2011; Vinayahan et al., 2010).

S. aureus strain SCO1 = test: Submerged biofilm formation by S. aureus, crystal violet staining; type: cell-based, Staphylococcus aureus; details: for inhibition of S. aureus biofilm formation: TSB with NaCl (3%) and Glucose (0.5%), norspermidine 10 μM, norspermine 100 μM; for inhibition of S. aureus submerged biofilm formation, compound screen: compounds tested at 500 μM
Procedure: (§1) The compounds were tested at 500 μM. Biofilm formation was visualized by crystal violet staining of submerged biofilms.
(§2) Whether polyamines might prevent biofilm formation by other bacteria that produce an exopolysaccharide matrix was examined. […] The compounds were tested at 500 μM. Biofilm formation was visualized by crystal violet staining of submerged biofilms.
The medium was applied with norspermidine (10 μM), norspermine (100 μM) or spermine (500 μM). Planktonic cells were removerd (19A-D). Wells were washed once, and incubated with Crystal Violet (0.1%) for 15 mins. Wells were washed twice in DDW (19E-H).
The effect of certain polyamines combined with biofilm-inhibiting D-amino acids in Staphylococcus was examined. S. aureus strain SC-01 was grown to a mid-logarithmic phase and diluted 1:1000 into a 12 wells plate in a TSB medium applied with NaCl (3%) and Glucose (0.5%). The medium was applied with either norspermidine or D-tyrosine or both as indicated below each panel. Planktonic cells were removerd Wells were washed once, and incubated with Crystal Violet (0.1%) for 15 mins. Wells were washed twice in DDW.

E. coli strain MC4100 = test: Submerged biofilm formation by E. coli, crystal violet staining; type: cell-based, Escherichia coli; details: compounds tested at 500 μM
Procedure: as §1, §2
(§3) In testing E. coli, the biofilm-proficient strain MC4100 was selected because a major component of exopolysacchride is colanic acid (Danese et al., 2000; Price and Raivio, 2009).

[6] = test system: exopolysaccharide of S. aureus cells; test: Fluorescence microscopy of exopolysaccharide staining, S. aureus; type: cell-based, Staphylococcus aureus
[7] = test system: exopolysaccharide of E. coli cells; test: Fluorescence microscopy of exopolysaccharide staining, E. coli; type: cell-based, Escherichia coli
Excerpt: as §3

[8] = test system: P. aeriginosa strain PA14; test: Biofilm formation by Pseudomonas on solid M63 medium; type: cell-based, Pseudomonas aeruginosa; details: 1 μl of cells mixed with 1 μl (10 mM) polyamine
Procedure: The effect of polyamines on biofilm formation by Pseudomonas was examined. P. aeriginosa strain PA14 were grown to a mid-logarithmic phase and 1 μl of cells was mixed with 1 μl (10 mM) of each polyamine. The mixture was plated on solid M63 medium.

[9] = test system: Proteus mirabilis strain BB2000; test: Proteus mirabilis biofilm formation in polystyrene wells, crystal violet staining; type: cell-based; details: 1 mM, M9 + glucose, 48 hours at 30° C., OD 595 nm
Procedure: To examine the effects of polyamines on biofilm formation, wells were initially treated with water (no treatment), 1 mM norspermidine, and 1 mM norspermine in 3 ml M9 + glucose before inoculation with P. mirabilis. Biofilms were permitted to grow for 48 hours at 30° C. without shaking The amount of biofilm formed was assessed with the standard assay of crystal violet staining (O'Toole G et al., Biofilm formation as microbial development, Annu Rev. Microbiol. (2000) 54:49-79); supernatant was removed from the wells and crystal violet (at […]) was then incubated in each well for 15 minutes at room temperature, followed by removal of the crystal violet from the wells and a subsequent washes with water. Any crystal violet attached the wells was next solubilized with 95% ethanol for 15 minutes at room temperature, and the subsequent optical density at 595 nm in each well was measured with a multiplate reader.

B. subtilis pellicles = test: Disassembly of pre-formed pellicles, B. subtilis; type: cell-based, Bacillus subtilis; details: 250 μM applied at day 2, additional 24 hrs
Procedure: After incubation for the indicated times, pellicle material and the medium were separated and each brought to a volume of 3 ml. After mild sonication, the OD600 was determined for each sample. The % of disassembly represents the OD600 of the medium as a percent of the sum of the OD600 of the medium and the OD600 of the pellicle. […] Thus, D-amino acids and norspermidine act synergistically in preventing biofilm formation and triggering the disassembly of mature biofilms.
Whether polyamines could trigger disassembly of biofilms formed by B. subtilis was examined. B. subtilis wild-type cells grown in liquid biofilm medium. Cells were grown to mid-logarithmic phase and diluted 1:1000 in liquid biofilm media. At day 2, pre-formed pellicles were applied with either PBS (A) or norspermine (250 μM) (B). Pellicles were incubated for additional 24 hrs.

| SMILES | minimal effective concentration ([1]; NCBI3610, read-out: MBIC- Minimal Biofilm Inhibitory Concentration) | concentration at which biofilm formation was inhibited ([1]; authentic norspermidine, pellicle formation NCBI3610) | inhibition of pellicle formation at 50 μM [1] | inhibition of biofilm formation on solid biofilm medium [2] | effect on pellicle formation by amyloid fiber (TasA) mutant [3] | effect on residual pellicle of exopolysaccharide mutant [3] | pattern of concanavalin A-Texas Red staining of exopolysaccharide ([4]; norspermidine 25 μM, spermidine 1 mM) | effect on protein component of the matrix (TasA-mCherry) ([4]; norspermidine 50 μM) | cell growth [5] | inhibition of S. aureus biofilm formation (S. aureus strain SCO1) | inhibition of S. aureus submerged biofilm formation, compound screen (S. aureus strain SCO1) | inhibition of E. coli submerged biofilm formation (E. coli strain MC4100) | staining of exopolysaccharide, S. aureus cells [6] | staining of exopolysaccharide, E. coli cells [7] | inhibition of Pseudomonas biofilm formation [8] | reduction of Proteus mirabilis biofilm formation [9] | minimal effective concentration ([1]; NCBI3610, B. subtilis biofilm inhibition assay, library of polyamines, read-out: MBIC- Minimal Biofilm Inhibitory Concentration) | biofilm-inhibitory activity against B. subtilis ([1]; library of polyamines, structure-activity) | disassembly of pre-formed pellicles (B. subtilis pellicles) |
| --- | --- | --- | --- | --- | --- | --- | --- | --- | --- | --- | --- | --- | --- | --- | --- | --- | --- | --- | --- |
| NCCCNCCCN [Molecule 1, N-(3-aminopropyl)propane-1,3-diamine] | 25 to 50 µM | 25 µM | inhibit biofilm formation | inhibit biofilm formation | abolished pellicle formation | little effect on the residual pellicle | disrupted the relatively uniform, cell-associated pattern of staining | little or no effect on the protein component of the matrix | not significantly inhibited | inhibit biofilm formation | inhibited the formation of submerged biofilms | inhibited the formation of submerged biofilms | markedly diminished staining of exopolysaccharide | markedly diminished staining of exopolysaccharide | inhibit biofilm formation | sufficient to reduce biofilm formation |  |  |  |
| NCCCNCCCNCCCN [Molecule 2, N′-[3-(3-aminopropylamino)propyl]propane-1,3-diamine] |  |  | inhibit biofilm formation | inhibit biofilm formation |  |  |  |  |  | inhibit biofilm formation | inhibited the formation of submerged biofilms | inhibited the formation of submerged biofilms |  |  | inhibit biofilm formation | sufficient to reduce biofilm formation | 200 µM | exhibited biofilm-inhibitory activity | triggered disassembly of the pellicles |
